# Calls of active or inactive are those of the source. The rule behind the calls is not given here.
# Columns and labels:
# [1] = biological target: T1, Cytochrome P450 11B2, mitochondrial (Homo sapiens, UniProt P19099)
# T1 sequence (P19099 whole entry): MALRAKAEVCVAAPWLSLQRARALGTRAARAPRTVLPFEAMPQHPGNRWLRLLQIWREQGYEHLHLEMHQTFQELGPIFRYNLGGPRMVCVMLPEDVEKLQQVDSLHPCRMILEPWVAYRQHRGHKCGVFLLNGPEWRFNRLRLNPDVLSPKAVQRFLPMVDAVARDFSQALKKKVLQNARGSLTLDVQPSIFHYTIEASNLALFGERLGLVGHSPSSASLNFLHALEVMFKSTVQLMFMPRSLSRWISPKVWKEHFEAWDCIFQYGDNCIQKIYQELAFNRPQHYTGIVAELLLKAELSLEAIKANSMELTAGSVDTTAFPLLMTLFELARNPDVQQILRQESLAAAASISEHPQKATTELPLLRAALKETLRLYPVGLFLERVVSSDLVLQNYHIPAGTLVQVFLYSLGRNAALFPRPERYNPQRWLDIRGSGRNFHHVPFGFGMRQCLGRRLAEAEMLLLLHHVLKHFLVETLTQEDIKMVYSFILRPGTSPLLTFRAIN
# Description: Inhibition of human CYP11B2 expressed in human renal leiomyoblastoma cells using 11-deoxycorticosterone as substrate assessed as formation of aldosterone after 16 hrs by HTRF assay
# [2] = human, microsomes
# Description: Clearance in human microsomes assessed per mg of protein
# [3] = mouse, microsomes
# Description: Clearance in mouse microsomes assessed per mg of protein
# [4] = rat, microsomes
# Description: Clearance in rat microsomes assessed per mg of protein
# [5] = biological target: T2, Cytochrome P450 11B2, mitochondrial (Rattus norvegicus, UniProt P30099); test: Inhibition of rat CYP11B2 expressed in renal leiomyoblastoma cells at 500 nM relative to control; assay type: cell-based
# T2 sequence (P30099 whole entry): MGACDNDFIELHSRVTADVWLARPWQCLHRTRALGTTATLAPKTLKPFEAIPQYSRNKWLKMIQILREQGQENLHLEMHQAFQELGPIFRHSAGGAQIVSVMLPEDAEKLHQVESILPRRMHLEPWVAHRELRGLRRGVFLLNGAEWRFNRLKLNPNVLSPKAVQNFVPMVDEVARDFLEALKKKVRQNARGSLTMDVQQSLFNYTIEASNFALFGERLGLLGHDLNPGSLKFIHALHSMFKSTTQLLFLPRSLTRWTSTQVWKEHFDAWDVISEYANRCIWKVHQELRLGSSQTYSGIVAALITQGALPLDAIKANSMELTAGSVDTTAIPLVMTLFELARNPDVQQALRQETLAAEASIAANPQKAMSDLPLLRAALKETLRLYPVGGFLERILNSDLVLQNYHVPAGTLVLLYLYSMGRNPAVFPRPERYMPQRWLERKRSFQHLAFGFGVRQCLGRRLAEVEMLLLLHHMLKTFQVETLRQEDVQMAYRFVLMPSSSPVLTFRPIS
# Rattus norvegicus [6] = organism: Rattus norvegicus; test: Reduction of aldosterone level in angiotension-2 ZSF1 rat infusion model; assay type: functional, organism-based
# Rattus norvegicus [7] = organism: Rattus norvegicus; test: Induction of improvement in glomerular filtration rate in angiotension-2 ZSF1 rat infusion model; assay type: functional, organism-based
# Rattus norvegicus [8] = organism: Rattus norvegicus; test: Induction of improvement in renal histology in angiotension-2 ZSF1 rat infusion model; assay type: functional, organism-based
# Cytochrome P450 3A4 = Cytochrome P450 3A4 (Homo sapiens, UniProt P08684)
# Chain of Cytochrome P450 3A4 (P08684 whole entry): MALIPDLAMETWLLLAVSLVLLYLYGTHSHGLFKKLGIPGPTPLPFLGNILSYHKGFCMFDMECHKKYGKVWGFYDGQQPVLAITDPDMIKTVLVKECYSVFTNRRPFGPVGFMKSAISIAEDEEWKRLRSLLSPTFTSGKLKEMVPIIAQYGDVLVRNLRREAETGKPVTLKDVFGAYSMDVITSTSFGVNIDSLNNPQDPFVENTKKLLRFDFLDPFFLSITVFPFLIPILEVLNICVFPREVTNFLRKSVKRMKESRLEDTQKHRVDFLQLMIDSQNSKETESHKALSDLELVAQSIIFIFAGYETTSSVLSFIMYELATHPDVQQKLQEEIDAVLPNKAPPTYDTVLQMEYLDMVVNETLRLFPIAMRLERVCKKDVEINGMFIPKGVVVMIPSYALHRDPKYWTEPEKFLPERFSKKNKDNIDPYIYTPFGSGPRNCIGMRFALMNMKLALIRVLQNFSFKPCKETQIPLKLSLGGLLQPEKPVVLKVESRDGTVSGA
# Description: Inhibition of CYP3A4 (unknown origin)
# Cytochrome P450 2D6 = Cytochrome P450 2D6 (Homo sapiens, UniProt P10635)
# Chain of Cytochrome P450 2D6 (P10635 whole entry): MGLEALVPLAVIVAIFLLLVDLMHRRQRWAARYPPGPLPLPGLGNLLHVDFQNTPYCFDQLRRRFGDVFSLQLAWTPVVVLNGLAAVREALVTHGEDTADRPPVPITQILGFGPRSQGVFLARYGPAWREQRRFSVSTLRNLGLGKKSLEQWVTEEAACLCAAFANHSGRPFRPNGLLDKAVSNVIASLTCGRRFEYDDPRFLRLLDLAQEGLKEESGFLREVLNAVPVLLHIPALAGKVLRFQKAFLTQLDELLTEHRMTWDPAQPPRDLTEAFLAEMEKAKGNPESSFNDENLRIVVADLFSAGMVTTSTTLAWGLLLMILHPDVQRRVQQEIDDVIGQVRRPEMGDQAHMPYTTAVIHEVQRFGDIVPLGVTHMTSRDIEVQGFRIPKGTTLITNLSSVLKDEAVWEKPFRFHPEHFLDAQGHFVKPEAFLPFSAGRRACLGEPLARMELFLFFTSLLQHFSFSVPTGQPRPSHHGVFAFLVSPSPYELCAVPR
# Description: Inhibition of CYP2D6 (unknown origin)
# Cytochrome P450 2C9 = Cytochrome P450 2C9 (Homo sapiens, UniProt P11712)
# Chain of Cytochrome P450 2C9 (P11712 whole entry): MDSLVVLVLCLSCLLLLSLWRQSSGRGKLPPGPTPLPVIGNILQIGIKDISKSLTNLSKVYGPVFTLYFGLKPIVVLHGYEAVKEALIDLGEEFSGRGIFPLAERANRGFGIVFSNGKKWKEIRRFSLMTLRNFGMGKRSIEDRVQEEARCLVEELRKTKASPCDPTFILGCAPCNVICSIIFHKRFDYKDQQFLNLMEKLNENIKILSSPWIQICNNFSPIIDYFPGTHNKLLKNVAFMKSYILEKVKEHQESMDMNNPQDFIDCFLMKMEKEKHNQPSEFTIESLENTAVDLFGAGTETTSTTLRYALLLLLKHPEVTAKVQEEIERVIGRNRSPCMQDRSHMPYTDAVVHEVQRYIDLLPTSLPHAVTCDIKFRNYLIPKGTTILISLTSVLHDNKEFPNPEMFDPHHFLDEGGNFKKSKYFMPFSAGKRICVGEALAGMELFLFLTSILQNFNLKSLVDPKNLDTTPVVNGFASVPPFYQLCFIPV
# Description: Inhibition of CYP2C9 (unknown origin)
# physchem [9] = conditions: PAMPA
# Description: Permeability of the compound by PAMPA
# physchem [10] = conditions: 1-octanol/TAPSO buffer, pH 7.4
# physchem [11] = conditions: phosphate buffer, pH 6.5
# Description: Aqueous solubility of the compound in phosphate buffer at pH 6.5 by LYSA method
# [12] = biological target: T3, Cytochrome P450 11B2, mitochondrial (Mus musculus, UniProt P15539)
# T3 sequence (P15539 whole entry): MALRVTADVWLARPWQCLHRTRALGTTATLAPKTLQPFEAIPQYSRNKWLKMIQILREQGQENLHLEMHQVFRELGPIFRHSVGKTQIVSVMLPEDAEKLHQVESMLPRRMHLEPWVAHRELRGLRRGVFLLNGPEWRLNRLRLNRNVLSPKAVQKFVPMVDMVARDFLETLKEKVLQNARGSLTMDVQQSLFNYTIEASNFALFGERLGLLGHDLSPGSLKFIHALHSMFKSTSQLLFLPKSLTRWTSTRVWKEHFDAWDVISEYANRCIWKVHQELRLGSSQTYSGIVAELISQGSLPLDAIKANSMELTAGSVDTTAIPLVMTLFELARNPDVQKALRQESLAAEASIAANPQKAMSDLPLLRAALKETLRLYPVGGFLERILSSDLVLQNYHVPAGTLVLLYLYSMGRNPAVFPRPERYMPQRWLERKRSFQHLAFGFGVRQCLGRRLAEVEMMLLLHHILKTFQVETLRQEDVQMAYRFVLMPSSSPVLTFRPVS
# Description: Inhibition of mouse CYP11B2 expressed in renal leiomyoblastoma cells
SMILES,IC50 [1] [nM],CL [2] [µg/min],CL [3] [µg/min],CL [4] [µg/min],inhibition at 0.5 µM [5] [%],Activity (Rattus norvegicus [6]),Activity (Rattus norvegicus [7]),Activity (Rattus norvegicus [8]),IC50 (Cytochrome P450 3A4) [nM],IC50 (Cytochrome P450 2D6) [nM],IC50 (Cytochrome P450 2C9) [nM],Papp (physchem [9]) [×10⁻⁶ cm/s],logD (physchem [10]),solubility (physchem [11]) [µg/mL],IC50 [12] [nM]
N#Cc1ccc(-c2cccnc2)cc1,40,< 10,53,< 10,–,–,–,–,–,–,–,–,–,–,–
O=C1CCc2cc(-c3cncc4ccccc34)ccc2N1,–,–,–,–,65,–,–,–,–,–,–,–,–,–,–
COC(=O)[C@@H]1CC2=CC(=O)CC[C@]2(C)[C@@]23O[C@@H]2C[C@@]2(C)[C@@H](CC[C@@]24CCC(=O)O4)[C@H]13,–,–,–,–,–,Active,Active,Active,–,–,–,–,–,–,–
N#Cc1ccc(-c2cncc3c2CCCC3N)cc1 (racemic),42,< 10,12,< 10,–,–,–,–,–,–,–,–,–,–,–
CC(=O)NC1CCCc2c(-c3ccc(C#N)cc3)cncc21 (racemic),21,< 10,< 10,< 10,–,–,–,–,> 50000,> 50000,> 50000,> 4.4,1.8,415,–
CC(C)C(=O)NC1CCCc2c(-c3ccc(C#N)cc3)cncc21 (racemic),–,< 10,< 10,< 10,–,–,–,–,> 50000,> 50000,> 50000,> 4.4,2.6,90,–
CCC(=O)NC1CCCc2c(-c3ccc(F)c(F)c3)cncc21 (racemic),47,< 10,17,85,–,–,–,–,–,–,–,> 4,3,310,–
CCC(=O)NC1CCCc2c(-c3cc(F)c(F)cc3F)cncc21 (racemic),27,< 10,< 10,78,–,–,–,–,–,–,–,> 4,3.1,239,–
CCC(=O)NC1CCCc2c(-c3ccc(Cl)cc3F)cncc21 (racemic),28,< 10,21,46,–,–,–,–,–,–,–,> 4,3.6,129,–
CCC(=O)NC1CCCc2c(-c3ccc(Cl)c(F)c3)cncc21 (racemic),14,< 10,36,31,–,–,–,–,–,–,–,> 4,3.6,99,–
N#Cc1ccc([C@H]2CCc3cncn32)c(F)c1 [OSILODROSTAT],–,–,–,–,–,–,–,–,–,–,–,–,–,–,210

# From ChEMBL document CHEMBL3621059, “Discovery of 4-Aryl-5,6,7,8-tetrahydroisoquinolines as Potent, Selective, and Orally Active Aldosterone Synthase (CYP11B2) Inhibitors: In Vivo Evaluation in Rodents and Cynomolgus Monkeys” (J Med Chem, 2015)
